Test results published in US20240376097A1, “BCL-2 Inhibitor” (BeiGene Ltd., priority 2020, published 2024).
Like-named read-outs stand apart in the source and are kept apart here.

Legend:
[1] = biological target: Recombinant human Bcl-2 protein (Homo sapiens (Human), UniProt P10415); assay: Bcl-2 TR-FRET Assay; format: binding
Description: Biological Example: Bcl-2 TR-FRET Assay
Compounds disclosed herein were tested for blocking of Bcl-2 protein with its ligand in an assay based on Time-Resolved Fluorescence Resonance Energy Transfer (TR-FRET) methodology. Recombinant human 0.05 nM Bcl-2 protein was pre-incubated with a serial dilution of compounds disclosed herein (top final concentration is 1 uM or 0.1 uM or 0.02 uM or 0.01 uM, 10 points) at room temperature for 0.5 hour in an assay buffer containing 20 mM potassium phosphate buffer, pH 7.5, 50 mM NaCl. 1 mM EDTA, 0.05% Tween-20, 0.01% BSA. Then the FITC labeled Bak peptide Ac-GQVGRQLAIIGDK(FITC)INR-amide (0.5 nM) and MAb Anti 6His Tb cryptate Gold were added to plate and further incubated at room temperature for 1 hour. The TR-FRET signals (337 nm-520 nm-490 nm) were read on BMG PHERAstar FSX instrument. The inhibition percentage of Bcl-2 interaction with its ligand in presence of increasing concentrations of compounds was calculated based on the TR-FRET signals. The IC50 for each compound was derived from fitting the data to the four-parameter logistic equation by Graphpad Prism software or Dotmatics.

[2] = biological target: recombinant human Bcl-2-G101V protein (Homo sapiens (Human), UniProt P10415, G101V); assay: Bcl-2-G101V TR-FRET Assay; format: binding; conditions: Bcl-2 G101V mutant, TR-FRET; read-out: Biochemical assay (IC50, nM) Bcl-2 G101V
Description: (§1) Biological Example: Bcl-2-G101V TR-FRET Assay
(§2) […]. The TR-FRET signals (ex337 nm, em490 nm/520 nm) were read on BMG PHERAstar FSX instrument. The inhibition percentage of Bcl-2-G101V interaction with its ligand in presence of increasing concentrations of compounds was calculated based on the ratio of fluorescence at 490 nm to that at 520 nm. The IC50 for each compound was derived from fitting the data to the four-parameter logistic equation by Graphpad Prism software or Dotmatics.

[3] = tested on: recombinant human Bcl-2-G101V protein; assay: Bcl-2-G101V TR-FRET Assay; format: binding; conditions: ratio of biochemical IC50 Bcl-2 G101V / Bcl-2 WT
Description: as §1, §2

[4] = tested on: RS4;11 (BCL-2 dependent acute lymphoblastic leukemia cell line); assay: RS4;11 Cell Proliferation Assay; format: cell-based; conditions: read-out: Cellular proliferation assay (IC50, nM) RS4
Description: Biological Example: RS4;11 Cell Proliferation Assay
The BCL-2 dependent acute lymphoblastic leukemia (ALL) cell line, RS4;11, was used to study the cellular potency of BCL-2 inhibitors. The cells (ATCC, CRL-1873) were cultured in RPMI-1640 complete medium (RPMI-1640 medium, HEPES (Gibco, 22400-105) supplemented with 10% fetal bovine serum (FBS) (Gibco, 10099-1441), 100 unit/ml penicillin and 100 μg/ml streptomycin (Gibco, 15140122)) and maintained in a humidified chamber at 37° C. containing 5% CO2. Each compound was serially diluted with 1 μM as the maximum concentration. To test the apoptotic effect of the compounds, the cells were seeded at 50,000 in 180 μl per well in 96-well plates and treated with 10-point dilution series of each compound for 48 hrs at 37° C. Cell viability was assessed after the treatment using CellTiter-GLO luminescent assay (Promega) according to the manufacturer's recommendations. Briefly, 30 μl of CellTiter-GLO reagent was added into 200 μl of cell culture. Mixture was agitated on an orbital shaker for 5 min to ensure cell lysis followed by 7 min incubation at room temperature to allow development and stabilization of luminescent signals, which corresponded to the quantity of ATP and thus the quantity of metabolically active cells. Luminescent signals were measured using PHERAstar FS reader (BMG). Mean IC50 values were determined with GraphPad Prism software.

[5] = biological target: recombinant human Bcl-2 D103Y protein (Homo sapiens (Human), UniProt P10415, D103Y); assay: Bcl-2-D103Y Biochemical Assay (TR-FRET); format: binding; conditions: for IC50: TR-FRET, FITC labeled Bak peptide; for Ratio of Bcl-2 D103Y/Bcl-2 WT: ratio of IC50
Description: Biological Example: Bcl-2-D103Y Biochemical Assay
as §2, with “Bcl-2 D103Y” for “Bcl-2-G101V”, “by” for “by Graphpad Prism software or”

[6] = Bcl-2 wild type, TR-FRET, read-out: Biochemical assay (IC50, nM) Bcl-2 WT
[7] = wild type Bcl-2, unit inferred, read-out: Bcl-2 WT

For CC(C)c1ccccc1C1CN(C(C)c2ccccc2)CCN1C1CC2(CCN(c3ccc(C(=O)NS(=O)(=O)c4ccc(NC[C@H]5CC[C@](C)(O)CC5)c([N+](=O)[O-])c4)c(Oc4cnc5[nH]ccc5c4)c3)CC2)C1 (single isomer, unassigned) [Example 24a, 2-((1H-pyrrolo[2,3-b]pyridin-5-yl)oxy)-N-((4-((((1r,4r)-4-hydroxy-4-methylcyclohexyl)methyl)amino)-3-nitrophenyl)sulfonyl)-4-(2-(2-(2-isopropylphenyl)-4-(1-phenylethyl)piperazin-1-yl)-7-azaspiro[3.5]nonan-7-yl)benzamide], the IC50 [1, 6] was 0.37 nM, the IC50 [2] was 6.9 nM and the “Ratio of Bcl-2 G101V/WT” value [3] was 18.6. The IC50 ([4]; RS4;11 cells) was 3.4 nM.

For CC(C)c1ccccc1C1CN(Cc2ccc(OC(F)(F)F)cc2)CCN1C1CC2(CCN(c3ccc(C(=O)NS(=O)(=O)c4ccc(NC[C@H]5CC[C@](C)(O)CC5)c([N+](=O)[O-])c4)c(Oc4cnc5[nH]ccc5c4)c3)CC2)C1 (stereo partly shown) [Example 39, 2-((1H-pyrrolo[2,3-b]pyridin-5-yl)oxy)-N-((4-((((1r,4r)-4-hydroxy-4-methylcyclohexyl)methyl)amino)-3-nitrophenyl)sulfonyl)-4-(2-(2-(2-isopropylphenyl)-4-(4-(trifluoromethoxy)benzyl)piperazin-1-yl)-7-azaspiro[3.5]nonan-7-yl)benzamide], the IC50 [1, 6] was 1.1 nM, the IC50 [1, 7] was 1.1 nM and the IC50 [2] was 6.7 nM. The “Ratio of Bcl-2 G101V/WT” value [3] was 6.1, the IC50 [5] was 3.8 nM and the “Ratio of Bcl-2 D103Y/Bcl-2 WT” value [5] was 3.5.

For CC(C)c1ccccc1C1CN(c2ccccc2)CCN1C1CC2(CCN(c3ccc(C(=O)NS(=O)(=O)c4ccc(NC[C@H]5CC[C@](C)(O)CC5)c([N+](=O)[O-])c4)c(Oc4cnc5[nH]ccc5c4)c3)CC2)C1 (stereo partly shown) [Example 65, 2-((1H-pyrrolo[2,3-b]pyridin-5-yl)oxy)-N-((4-((((1r,4r)-4-hydroxy-4-methylcyclohexyl)methyl)amino)-3-nitrophenyl)sulfonyl)-4-(2-(2-(2-isopropylphenyl)-4-phenylpiperazin-1-yl)-7-azaspiro [3.5]nonan-7-yl)benzamide], the IC50 [1, 6] was 0.86 nM, the IC50 [2] was 54 nM and the “Ratio of Bcl-2 G101V/WT” value [3] was 62.8. For the same compound, the IC50 ([4]; Homo sapiens, RS4-11, RS4;11 cells) was 5.9 nM.

COc1ccc(CN2CCN(C3CC4(CCN(c5ccc(C(=O)NS(=O)(=O)c6ccc(NCC7(F)CCC(C)(O)CC7)c([N+](=O)[O-])c6)c(Oc6cnc7[nH]ccc7c6)c5)CC4)C3)[C@H](c3ccccc3C(C)C)C2)cc1 (stereo partly drawn) [Example 226, (R)-2-((1H-pyrrolo[2,3-b]pyridin-5-yl)oxy)-N-((4-(((1-fluoro-4-hydroxy-4-methylcyclohexyl)methyl)amino)-3-nitrophenyl)sulfonyl)-4-(2-(2-(2-isopropylphenyl)-4-(4-methoxybenzyl)piperazin-1-yl)-7-azaspiro[3.5]nonan-7-yl) benzamide] was tested, and the IC50 [1, 6] was 0.17 nM, the IC50 [1, 7] was 0.17 nM and the IC50 [2] was 0.64 nM. For the same compound, the “Ratio of Bcl-2 G101V/WT” value [3] was 3.9, the IC50 [5] was 0.16 nM and the “Ratio of Bcl-2 D103Y/Bcl-2 WT” value [5] was 1.

COc1cc(CN2CCN(C3CC4(CCN(c5ccc(C(=O)NS(=O)(=O)c6ccc(NC[C@H]7CC[C@](C)(O)CC7)c([N+](=O)[O-])c6)c(Oc6cnc7[nH]ccc7c6)c5)CC4)C3)[C@H](c3ccccc3C(C)C)C2)cc2c1OCC2(C)C [Example 286, 2-((1H-pyrrolo[2,3-b]pyridin-5-yl)oxy)-N-((4-((((1r,4r)-4-hydroxy-4-methylcyclohexyl)methyl)amino)-3-nitrophenyl)sulfonyl)-4-(2-((R)-2-(2-isopropylphenyl)-4-((7-methoxy-3,3-dimethyl-2,3-dihydrobenzofuran-5-yl)methyl)piperazin-1-yl)-7-azaspiro[3.5]nonan-7-yl)benzamide] was tested, and the IC50 [1, 6] was 0.1 nM, the IC50 [1, 7] was 0.1 nM and the IC50 [2] was 0.48 nM. The “Ratio of Bcl-2 G101V/WT” value [3] was 4.8, the IC50 [5] was 0.19 nM and the “Ratio of Bcl-2 D103Y/Bcl-2 WT” value [5] was 1.9.

COc1cc(CN2CCN(C3CC4(CCN(c5ccc(C(=O)NS(=O)(=O)c6ccc(NC[C@H]7CC[C@](C)(O)CC7)c([N+](=O)[O-])c6)c(Oc6cnc7[nH]ccc7c6)c5)CC4)C3)[C@H](c3ccccc3C(C)C)C2)ccc1C1CCCC1 [Example 294, 2-((1H-pyrrolo[2,3-b]pyridin-5-yl)oxy)-4-(2-((R)-4-(4-cyclopentyl-3-methoxybenzyl)-2-(2-isopropylphenyl)piperazin-1-yl)-7-azaspiro[3.5]nonan-7-yl)-N-((4-((((1r,4r)-4-hydroxy-4-methylcyclohexyl)methyl)amino)-3-nitrophenyl)sulfonyl)benzamide] was tested, and the IC50 [1, 6] was 3.2 nM, the IC50 [2] was 10 nM and the “Ratio of Bcl-2 G101V/WT” value [3] was 3.2.

Work on CNc1ccc(CN2CCN(C3CC4(C3)CN(c3ccc(C(=O)NS(=O)(=O)c5ccc(NC[C@H]6CC[C@](C)(O)CC6)c([N+](=O)[O-])c5)c(Oc5cnc6[nH]cc(F)c6c5)c3)C4)[C@H](c3ccccc3C(C)C)C2)cc1OC [Example 358, 2-((3-fluoro-1H-pyrrolo[2,3-b]pyridin-5-yl)oxy)-N-((4-((((1r,4r)-4-hydroxy-4-methylcyclohexyl)methyl)amino)-3-nitrophenyl)sulfonyl)-4-(6-((R)-2-(2-isopropylphenyl)-4-(3-methoxy-4-(methylamino)benzyl)piperazin-1-yl)-2-azaspiro[3.3]heptan-2-yl) benzamide] yielded an IC50 [1, 6] of 0.1 nM, an IC50 [1, 7] of 0.1 nM and an IC50 [2] of 0.24 nM. The “Ratio of Bcl-2 G101V/WT” value [3] was 2.4, the IC50 [5] was 0.11 nM and the “Ratio of Bcl-2 D103Y/Bcl-2 WT” value [5] was 1.1.

For CC(C)c1ccccc1[C@@H]1CN(Cc2ccc(C3CCOCC3)cc2)CCN1C1CC2(C1)CN(c1ccc(C(=O)NS(=O)(=O)c3ccc(NC[C@H]4CC[C@](C)(O)CC4)c([N+](=O)[O-])c3)c(Oc3cnc4[nH]cc(F)c4c3)c1)C2 [Example 370, 2-((3-fluoro-1H-pyrrolo[2,3-b]pyridin-5-yl)oxy)-N-((4-((((1r,4r)-4-hydroxy-4-methylcyclohexyl)methyl)amino)-3-nitrophenyl)sulfonyl)-4-(6-((R)-2-(2-isopropylphenyl)-4-(4-(tetrahydro-2H-pyran-4-yl)benzyl)piperazin-1-yl)-2-azaspiro[3.3]heptan-2-yl) benzamide], the IC50 [1, 6] was 0.18 nM, the IC50 [2] was 0.67 nM and the “Ratio of Bcl-2 G101V/WT” value [3] was 3.7.

With CC(C)c1ccccc1[C@@H]1CN(Cc2ccc(C3CCOC3)cc2)CCN1C1CC2(C1)CN(c1ccc(C(=O)NS(=O)(=O)c3ccc(NCC4CCC(C)(O)CC4)c([N+](=O)[O-])c3)c(Oc3cnc4[nH]cc(F)c4c3)c1)C2 (stereo partly drawn) [Example 371, 2-((3-fluoro-1H-pyrrolo[2,3-b]pyridin-5-yl)oxy)-N-((4-((((1r,4r)-4-hydroxy-4-methylcyclohexyl)methyl)amino)-3-nitrophenyl)sulfonyl)-4-(6-((2R)-2-(2-isopropylphenyl)-4-(4-(tetrahydrofuran-3-yl)benzyl)piperazin-1-yl)-2-azaspiro[3.3]heptan-2-yl)benzamide] the IC50 [1, 6] was 0.12 nM, the IC50 [2] was 0.32 nM and the “Ratio of Bcl-2 G101V/WT” value [3] was 2.7. For the same compound, the IC50 [5] was 0.31 nM and the “Ratio of Bcl-2 D103Y/Bcl-2 WT” value [5] was 2.6.
